Structures are written as SMILES. The source made the active and inactive calls.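 Rule for the calls: active = AC50 no more than ten times the top concentration tested, that is within one log above it; inconclusive = flat curve fit with activity between 30% and 70%, or invalid poor fit; inactive = AC50 beyond ten times the top tested dose.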

In the experiment the test system is S. cerevisiae Mot1-301 ts growth rescue, BacTiter-Glo ATP luminescence. Put plainly: growth rescue of Mot1-301 ts yeast, confirmation, SUMOylation pathway inhibitor project, whole organism, S. cerevisiae, Mot1-301 ts mutant, luminescence, dose retest (AID 463204).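 Note: growth at restrictive 38.5 degrees C of Mot1-301 OY566 strain; actives raise luminescence by restoring growth of the ts mutant at high temperature.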
As a reminder, the AC50 is the concentration at which the activity in the assay is half-maximal. `Cc1ccc(N/C=C(\C#N)c2ccc(OCCCF)cc2)cc1`: the AC50 was > 42 µM (inactive). With `O=C(Nc1cccc(C(=O)Nc2ccc(F)cc2F)c1)c1ccccc1` the figure was > 42 µM (inactive); with `COc1ccccc1NC(=O)c1ccc(-n2ccnc2)c([N+](=O)[O-])c1`, > 42 µM (inactive); with `CCOc1ccc(N2CC(C(=O)OC)CC2=O)cc1` (centres undefined), > 42 µM (inactive). With `CN1CCN(CC(=O)N2c3ccccc3C(=O)Nc3cccnc32)CC1` the figure was > 42 µM (inactive). Next, `COc1ccc2c(c1)OC[C@H]1[C@H]2N2C(=O)c3cc(C)ccc3NC(=O)[C@@]2(C)[C@H]1c1ccccc1`: 1.39 µM; `CN(C)C(=O)c1c2c(nc3ccccc13)CCCC2`: > 42 µM (inactive).

As to `COc1ccc(C2C(C(C)=O)=C(O)C(=O)N2CCO)c(OC)c1` (centres undefined), the AC50 was > 42 µM (inactive). With `COc1ccc(/C=C/C(=O)NC(=S)Nc2ccccn2)cc1` the figure was > 42 µM (inactive); with `CCC(=O)N1CCc2cc(S(=O)(=O)CCC(=O)Nc3cccc(C)n3)ccc21`, > 42 µM (inactive). For `C/C(=N\NC(=O)c1ccc(Cl)cc1)c1cccnc1`, the AC50 is > 42 µM (inactive). Next, `CCCCC(=O)Nc1cc(OC)c(NC(=O)C2CCCCC2)cc1OC`: > 42 µM (inactive); `COc1ccc(C)cc1NC(=O)Cn1c(=O)oc2ccccc21`: > 42 µM (inactive).

As for `Cc1ccc(/C=N/NC(=O)NC23CC4CC(CC(C4)C2)C3)o1`, the AC50 is > 42 µM (inactive). For the compound `CSc1ccc(Cl)c(C(=O)Nc2ccc(N3CCOCC3)cc2)c1`, the AC50 is > 42 µM (inactive). With `O=C(Nc1ccc(S(=O)(=O)NC2=NCCCCC2)cc1)c1ccc(C(F)(F)F)cc1` the figure was > 42 µM (inactive).

In the case of `Cc1c(N=Cc2cc(Br)cc(Br)c2O)cccc1C(=O)O`, the concentration at half-maximal activity (AC50) was 3.14 µM. With `O=C(CSc1cccc[n+]1[O-])N1CCc2ccccc21` the figure was > 42 µM (inactive); with `O=C(NNc1ccccc1)C(CCO)C(=O)NNc1ccccc1`, > 42 µM (inactive).

Consider `Cc1cc(C)c(S(=O)(=O)NCC(c2cccnc2)N2CCN(Cc3ccccc3)CC2)c(C)c1` (centres undefined), for which the AC50 was > 42 µM (inactive). With `CC/C(=N\Nc1ccc([N+](=O)[O-])cc1)c1ccccc1` the figure was > 42 µM (inactive). Next, `CCN(C(=O)CCS(=O)(=O)c1ccc2c(c1)oc(=O)n2C)c1ccc(OC)cc1`: > 42 µM (inactive); `CCOC(=O)C1CCN(C(=O)c2sccc2Cl)CC1`: > 42 µM (inactive); `COc1ccc(NC(=O)c2cc(C)no2)cc1Cl`: > 42 µM (inactive). Next, `Nc1cccc2c1C(=O)N(c1ccccc1)C2=O`: > 42 µM (inactive); `Cc1c(C(=O)NC(=S)Nc2ccccc2N2CCCC2)cccc1[N+](=O)[O-]`: > 42 µM (inactive). Turning to `O=C(Nc1nc2ccccc2s1)c1cccc(S(=O)(=O)N2CCc3ccccc32)c1`, the AC50 was > 42 µM (inactive).

In the case of `CCOC(=O)C(NC(=O)c1ccccc1)(N1CCOCC1)C(F)(F)F` (centres undefined), the AC50 is > 42 µM (inactive). As for `COCCCNCC(O)COc1cccc2[nH]c(C)cc12` (centres undefined), the AC50 was > 42 µM (inactive). With `COC(=O)c1ccccc1NC(=O)CSc1nnnn1CC(=O)O`, the AC50 is > 42 µM (inactive). With `Clc1ccccc1-c1ccc2ncnc(NCc3cccs3)c2c1` the figure was 37 µM; with `COc1ccc(-c2nnc(SCC(C)C)o2)cc1`, 31.1 µM. In the case of `COc1ccc(CN2CC(=O)N(c3ccccc3C)C2=S)cc1OC`, the AC50 is > 42 µM (inactive). As for `CCCC(=O)NC(C)c1nc2ccccc2[nH]1` (centres undefined), the AC50 was > 42 µM (inactive).

Regarding `CCOC(=O)Cc1csc(NC(=O)NC2(C(F)(F)F)Oc3ccccc3O2)n1`, the AC50 is > 42 µM (inactive). Next, `CC1CN(C(=O)c2cc([N+](=O)[O-])cc([N+](=O)[O-])c2)CC(C)O1` (centres undefined): > 42 µM (inactive); `O=CNCCCc1nc2ccccc2n1CCc1ccccc1`: > 42 µM (inactive).

On to `Cc1ccccc1NC(=O)COC(=O)C1C2CC3OC(=O)C1C3C2` (centres undefined), for which the AC50 was > 42 µM (inactive). Take `C(=N\N1CCN(C2c3ccccc3-c3ccccc32)CC1)/c1ccncc1`: the AC50 was 13.8 µM. Next, `COc1cc(C(=O)Nc2ccc3c(c2)OCCO3)ccc1-n1cnnn1`: > 42 µM (inactive). With `CSc1cc(C)c(OCC(=O)Nc2c(C)nn(C)c2C)c(C)c1` the figure was > 42 µM (inactive); with `Cc1cc(Br)ccc1NC(=O)c1cnc(N2CCN(c3ccccn3)CC2)c2ccccc12`, > 42 µM (inactive). Next, `C/C=C/C(=O)N1c2ccc(C)cc2C(C)=CC1(C)C`: > 42 µM (inactive); `COc1ccc(OC)c(N(CC(=O)N2CCCC2)S(=O)(=O)c2ccccc2)c1`: > 42 µM (inactive); `O=C(COc1ccc([N+](=O)[O-])cc1)Nc1ccc(C(=O)NCc2cccnc2)cc1`: > 42 µM (inactive). With `O=C1CCC(/C=C/c2ccccc2)=NN1Cc1ccc(Cl)c(Cl)c1`, the AC50 was > 42 µM (inactive). With `COc1ccc(N2C(=O)CSC23CCCCC3)cc1` the figure was > 42 µM (inactive); with `Cc1ccc2nc(NC(=O)CNS(=O)(=O)c3ccc(Br)s3)sc2c1`, > 42 µM (inactive).

Take `Cn1c(=NC(=O)COc2ccccc2)sc2cc(F)cc(F)c21`: the AC50 is > 42 µM (inactive). Turning to `COc1ccc2oc(=O)c(C(=O)NCc3ccco3)cc2c1`, the AC50 was > 42 µM (inactive). In the case of `Cn1c(CSc2nc3ccccc3s2)nnc1SCC(=O)NCCN1CCOCC1`, the AC50 is > 42 µM (inactive). For `CN(C)CCNC(=O)c1c(O)c2c([nH]c1=O)CCCC2`, the AC50 is > 42 µM (inactive). With `NC(=O)C1=C[C@@H](c2ccc(Br)cc2)C[C@@H](OCCCCO)O1` the figure was > 42 µM (inactive); with `COCC(=O)n1nc(NCc2ccc(OC)cc2)nc1NCc1ccc(OC)cc1`, > 42 µM (inactive); with `CCOC(=O)c1cc2c(ccn2-c2ccc(F)cc2)n1CC(=O)N1CCN(C(=O)c2ccco2)CC1`, > 42 µM (inactive). Take `COc1ccc(C(=O)OCC(=O)c2ccc(C)c(S(=O)(=O)N3CCOCC3)c2)cc1OC`: the AC50 is > 42 µM (inactive). With `CCCCSCCCNC(=O)Nc1cccc(OC)c1` the figure was > 42 µM (inactive).

With `COc1ccc(-c2nc(NC(=O)CCNC(=O)c3ccco3)sc2C)cc1`, the AC50 is > 42 µM (inactive). As to `COc1ccc(C)cc1S(=O)(=O)N1CCC(C(=O)NCCc2ccccc2)CC1`, the AC50 was > 42 µM (inactive). For `CCc1ccc(S(=O)(=O)NCc2cccnc2)cc1`, the AC50 is > 42 µM (inactive).

`COc1ccc(NS(=O)(=O)c2ccc(OCC(=O)N3CCOCC3)cc2)cc1Cl`: the AC50 is > 42 µM (inactive). Take `COc1ccc(N2CCN(CCCNC(=O)C(=O)c3c(C)[nH]c4ccccc34)CC2)cc1`: the AC50 was > 21 µM (inactive). Next, `COc1ccc(OC)c(CCNC(=O)c2ccc3c(c2)N(Cc2ccc(F)cc2)CCS3)c1`: > 42 µM (inactive); `O=C(N/N=C/C(Br)=C/c1ccccc1)c1n[nH]c2c1CCC2`: 6.68 µM; `Cc1cccc(NS(=O)(=O)c2ccc3[nH]c(=O)cc(C(=O)O)c3c2)c1`: > 21 µM (inactive). With `Cc1ccccc1OCc1nc(-c2ccccc2)no1` the figure was > 42 µM (inactive); with `c1ccc(CNc2ncnc3sc4c(c23)CCC4)nc1`, > 42 µM (inactive); with `O=C(Nc1ccc([N+](=O)[O-])cn1)C1CC1`, > 42 µM (inactive). Next, `C[C@H](NC(=O)OC(C)(C)C)C(=O)NCC1CCC(C(=O)N[C@@H](Cc2ccccc2)C(=O)O)CC1` (some centres undefined): > 42 µM (inactive). In the case of `CC(NC(=O)C12CC3CC(CC(O)(C3)C1)C2)c1ccccc1` (centres undefined), the AC50 was > 42 µM (inactive). Next, `CS(=O)(=O)N(CCc1ccccc1)CC(=O)NCc1cccnc1`: > 42 µM (inactive); `CCOC(=O)N1CCN(c2cc3[nH]c(=S)[nH]c3cc2F)CC1`: > 42 µM (inactive); `O=S(=O)(NCC1CCCN(Cc2ccccc2O)C1)c1cccc2cccnc12` (centres undefined): > 42 µM (inactive). For the compound `Oc1c(Br)cc(Cl)cc1C=Nc1ccccc1Br`, the half-maximal activity concentration (AC50) is 4.15 µM.

In the case of `CCOC(=O)c1sc(NC(=O)CSc2n[nH]c(-c3ccc(Cl)cc3Cl)n2)c(C#N)c1C`, the AC50 is > 42 µM (inactive).

With `COc1cccc(OC)c1C(=O)Nc1ccc2c(c1)N(S(=O)(=O)c1cccs1)CCC2`, the AC50 was > 42 µM (inactive). Next, `CCc1cc2c(=O)c(-c3ccc(F)cc3)c(C(F)(F)F)oc2cc1OCC(=O)O`: > 42 µM (inactive). As to `O=C(c1cc(-c2ccc(Cl)c(Cl)c2)on1)N1CCN(c2ccccc2)CC1`, the AC50 was > 42 µM (inactive). Next, `CCN1C(=NCc2cccc(Cl)c2)N[C@@H](c2cccc(F)c2)C(C(=O)OC)=C1C`: > 42 µM (inactive); `O=C(CCl)N(Cc1cc(=O)[nH]c2ccccc12)c1ccccc1`: > 42 µM (inactive); `CC(OC(=O)c1cnccn1)C(=O)c1ccccc1` (centres undefined): > 42 µM (inactive). With `COc1ccccc1NC(=O)CN(c1ccc(C)cc1)S(=O)(=O)c1c(C)n[nH]c1C` the figure was > 42 µM (inactive); with `Fc1ccc2nc(C3CCN(Cc4nc(CC5CC5)no4)CC3)[nH]c2c1`, > 42 µM (inactive).

As for `Cc1cccc(/C=N/NC(=O)Cc2cccs2)c1`, the AC50 was > 42 µM (inactive). `COc1cc(C(=O)COC(=O)c2cc([N+](=O)[O-])ccc2N2CCOCC2)ccc1OC(F)F`: the AC50 is 29.4 µM.

For the compound `CN(C)CCNC(=O)c1scc2c1CCCC2`, the AC50 is 29.2 µM.

With `O=C(CC(c1ccccc1)c1ccccc1)NCCOCc1ccccc1`, the AC50 was > 42 µM (inactive). Next, `COc1cccc(N=Nc2c(=O)[nH]n3c(=O)cc(C)[nH]c23)c1`: > 42 µM (inactive); `CCCCOc1ccc(C(=O)Nc2ccc(CN3CCOCC3)cc2)cc1`: > 42 µM (inactive).
